{"source": "patent US11767310B2", "about": "“Nicotinamide RIPK1 inhibitors” (AbbVie Inc., priority 2021, dated 2023)", "experiment_in_all_cases": "Kinase binding screen", "conditions_in_all_cases": "read-out: Percent Control at 100 nM Compound Concentration", "key": {"NEK11": {"biological_target": "NEK11 (Homo sapiens (Human), UniProt Q8NG66)", "sequence (Q8NG66 whole entry)": "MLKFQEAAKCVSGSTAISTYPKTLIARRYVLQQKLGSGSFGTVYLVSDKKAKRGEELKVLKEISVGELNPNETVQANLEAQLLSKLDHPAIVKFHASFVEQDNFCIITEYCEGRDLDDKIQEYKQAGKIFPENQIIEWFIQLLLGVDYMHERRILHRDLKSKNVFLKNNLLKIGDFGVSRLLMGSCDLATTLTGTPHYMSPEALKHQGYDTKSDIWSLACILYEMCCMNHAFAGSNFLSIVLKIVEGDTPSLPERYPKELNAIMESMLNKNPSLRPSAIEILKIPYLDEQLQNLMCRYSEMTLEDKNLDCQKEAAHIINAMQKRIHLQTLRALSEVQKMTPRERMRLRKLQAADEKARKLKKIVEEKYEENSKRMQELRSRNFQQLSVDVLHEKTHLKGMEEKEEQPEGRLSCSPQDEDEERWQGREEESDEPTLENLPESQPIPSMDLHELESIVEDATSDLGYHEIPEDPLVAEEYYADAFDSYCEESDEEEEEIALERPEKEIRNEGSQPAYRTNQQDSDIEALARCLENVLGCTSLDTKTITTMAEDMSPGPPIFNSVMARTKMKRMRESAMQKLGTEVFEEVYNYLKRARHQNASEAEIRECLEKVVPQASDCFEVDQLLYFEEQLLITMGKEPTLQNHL"}, "ERK8": {"biological_target": "ERK8 (Homo sapiens (Human), UniProt Q8TD08)"}, "PDPK1": {"biological_target": "PDPK1 (Homo sapiens (Human), UniProt O15530)", "sequence (O15530 whole entry)": "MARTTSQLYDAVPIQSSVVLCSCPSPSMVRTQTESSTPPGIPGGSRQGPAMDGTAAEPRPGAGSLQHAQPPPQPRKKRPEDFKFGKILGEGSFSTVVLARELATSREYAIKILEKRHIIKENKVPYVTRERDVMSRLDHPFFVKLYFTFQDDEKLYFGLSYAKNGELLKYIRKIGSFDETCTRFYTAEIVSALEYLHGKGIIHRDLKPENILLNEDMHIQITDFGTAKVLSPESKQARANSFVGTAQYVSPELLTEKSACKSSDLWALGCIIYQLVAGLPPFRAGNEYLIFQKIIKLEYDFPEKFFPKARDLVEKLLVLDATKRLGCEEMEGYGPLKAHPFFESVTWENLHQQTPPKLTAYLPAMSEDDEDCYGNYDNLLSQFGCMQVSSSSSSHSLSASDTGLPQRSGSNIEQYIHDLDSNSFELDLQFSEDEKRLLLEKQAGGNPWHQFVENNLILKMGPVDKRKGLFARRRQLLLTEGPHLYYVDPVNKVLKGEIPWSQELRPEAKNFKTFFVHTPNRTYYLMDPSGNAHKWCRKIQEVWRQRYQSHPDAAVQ"}, "SNRK": {"biological_target": "SNRK (Homo sapiens (Human), UniProt Q9NRH2)"}, "LIMK2": {"biological_target": "LIMK2 (Homo sapiens (Human), UniProt P53671)", "sequence (P53671 whole entry)": "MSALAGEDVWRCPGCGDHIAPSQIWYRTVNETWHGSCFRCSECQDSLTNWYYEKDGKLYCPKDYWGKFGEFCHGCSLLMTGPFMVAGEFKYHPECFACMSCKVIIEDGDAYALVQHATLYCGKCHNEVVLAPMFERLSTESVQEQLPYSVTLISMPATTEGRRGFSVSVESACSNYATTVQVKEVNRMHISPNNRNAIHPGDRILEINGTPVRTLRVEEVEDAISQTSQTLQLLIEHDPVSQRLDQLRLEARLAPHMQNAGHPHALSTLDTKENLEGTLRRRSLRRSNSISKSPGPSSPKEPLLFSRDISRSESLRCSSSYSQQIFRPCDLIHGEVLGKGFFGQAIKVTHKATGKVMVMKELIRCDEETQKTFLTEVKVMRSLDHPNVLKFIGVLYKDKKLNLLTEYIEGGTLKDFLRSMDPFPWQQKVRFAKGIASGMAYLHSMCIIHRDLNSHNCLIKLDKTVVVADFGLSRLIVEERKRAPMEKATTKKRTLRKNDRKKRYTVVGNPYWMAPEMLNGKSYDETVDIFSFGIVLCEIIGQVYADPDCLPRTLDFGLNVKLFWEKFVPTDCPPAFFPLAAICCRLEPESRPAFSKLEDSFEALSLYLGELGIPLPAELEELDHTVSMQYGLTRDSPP"}, "NLK": {"biological_target": "NLK (Homo sapiens (Human), UniProt Q9UBE8)"}, "BMPR2": {"biological_target": "BMPR2 (Homo sapiens (Human), UniProt Q13873)"}, "PKAC-beta": {"biological_target": "PKAC-beta (Homo sapiens (Human), UniProt P22694)"}, "DYRK1B": {"biological_target": "DYRK1B (Homo sapiens (Human), UniProt Q9Y463)", "sequence (Q9Y463 whole entry)": "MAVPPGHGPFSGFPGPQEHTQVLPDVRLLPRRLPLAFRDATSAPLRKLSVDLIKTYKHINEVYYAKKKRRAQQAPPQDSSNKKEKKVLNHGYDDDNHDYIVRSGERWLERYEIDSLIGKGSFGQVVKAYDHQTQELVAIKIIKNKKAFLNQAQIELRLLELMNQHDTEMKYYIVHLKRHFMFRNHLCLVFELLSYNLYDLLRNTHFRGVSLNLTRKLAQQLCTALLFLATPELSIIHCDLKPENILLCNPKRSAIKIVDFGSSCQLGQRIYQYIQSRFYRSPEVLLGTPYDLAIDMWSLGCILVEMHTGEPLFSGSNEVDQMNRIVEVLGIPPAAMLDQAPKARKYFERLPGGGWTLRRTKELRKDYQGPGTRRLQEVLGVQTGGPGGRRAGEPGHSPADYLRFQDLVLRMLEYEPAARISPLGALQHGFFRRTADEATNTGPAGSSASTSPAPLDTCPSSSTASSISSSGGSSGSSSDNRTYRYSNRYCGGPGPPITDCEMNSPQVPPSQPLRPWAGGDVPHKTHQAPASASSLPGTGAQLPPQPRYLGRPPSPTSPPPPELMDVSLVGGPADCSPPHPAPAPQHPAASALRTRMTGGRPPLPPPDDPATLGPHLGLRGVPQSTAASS"}, "BRAF(V600E)": {"biological_target": "BRAF(V600E) (Homo sapiens (Human), UniProt P15056, V600E)"}, "PKMYT1": {"biological_target": "PKMYT1 (Homo sapiens (Human), UniProt Q99640)"}, "CAMK2A": {"biological_target": "CAMK2A (Homo sapiens (Human), UniProt Q9UQM7)", "sequence (Q9UQM7 whole entry)": "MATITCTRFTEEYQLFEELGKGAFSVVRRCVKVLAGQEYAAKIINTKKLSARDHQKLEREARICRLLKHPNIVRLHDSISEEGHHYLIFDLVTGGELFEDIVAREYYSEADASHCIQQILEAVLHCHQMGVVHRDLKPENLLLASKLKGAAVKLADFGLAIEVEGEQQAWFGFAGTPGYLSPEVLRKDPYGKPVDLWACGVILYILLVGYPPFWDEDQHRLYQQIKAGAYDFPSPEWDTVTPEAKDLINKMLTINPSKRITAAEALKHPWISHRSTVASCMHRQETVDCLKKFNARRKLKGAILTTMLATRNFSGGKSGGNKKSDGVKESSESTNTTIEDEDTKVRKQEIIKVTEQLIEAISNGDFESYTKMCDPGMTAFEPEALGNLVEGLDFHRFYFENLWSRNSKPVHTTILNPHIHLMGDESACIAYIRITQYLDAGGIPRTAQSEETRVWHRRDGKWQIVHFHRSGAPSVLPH"}, "SRPK2": {"biological_target": "SRPK2 (Homo sapiens (Human), UniProt P78362)"}, "CSNK1G2": {"biological_target": "CSNK1G2 (Homo sapiens (Human), UniProt P78368)"}, "KIT(A829P)": {"biological_target": "KIT(A829P) (Homo sapiens (Human), UniProt P10721, A829P)"}, "[1]": {"biological_target": "RSK2(Kin.Dom.1-N-terminal) (Homo sapiens (Human), UniProt P51812)"}, "YANK2": {"biological_target": "YANK2 (Homo sapiens (Human), UniProt Q9NY57)"}, "QSK": {"biological_target": "QSK (Homo sapiens (Human), UniProt Q9Y2K2)"}, "SGK3": {"biological_target": "SGK3 (Homo sapiens (Human), UniProt Q96BR1)", "sequence (Q96BR1 whole entry)": "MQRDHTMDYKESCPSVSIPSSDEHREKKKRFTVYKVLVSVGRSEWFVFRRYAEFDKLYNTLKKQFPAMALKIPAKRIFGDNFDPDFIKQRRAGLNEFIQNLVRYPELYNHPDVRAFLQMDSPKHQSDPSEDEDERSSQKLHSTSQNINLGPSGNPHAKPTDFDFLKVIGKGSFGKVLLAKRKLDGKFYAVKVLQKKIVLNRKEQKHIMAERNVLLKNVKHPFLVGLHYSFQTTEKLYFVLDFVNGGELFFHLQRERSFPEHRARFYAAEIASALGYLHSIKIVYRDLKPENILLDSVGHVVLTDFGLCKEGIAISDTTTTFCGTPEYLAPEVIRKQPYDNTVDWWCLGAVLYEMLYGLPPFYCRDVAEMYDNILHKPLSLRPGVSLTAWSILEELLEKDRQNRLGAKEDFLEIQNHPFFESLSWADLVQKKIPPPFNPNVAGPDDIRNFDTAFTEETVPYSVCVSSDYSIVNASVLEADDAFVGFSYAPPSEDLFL"}, "MYLK2": {"biological_target": "MYLK2 (Homo sapiens (Human), UniProt Q9H1R3)", "sequence (Q9H1R3 whole entry)": "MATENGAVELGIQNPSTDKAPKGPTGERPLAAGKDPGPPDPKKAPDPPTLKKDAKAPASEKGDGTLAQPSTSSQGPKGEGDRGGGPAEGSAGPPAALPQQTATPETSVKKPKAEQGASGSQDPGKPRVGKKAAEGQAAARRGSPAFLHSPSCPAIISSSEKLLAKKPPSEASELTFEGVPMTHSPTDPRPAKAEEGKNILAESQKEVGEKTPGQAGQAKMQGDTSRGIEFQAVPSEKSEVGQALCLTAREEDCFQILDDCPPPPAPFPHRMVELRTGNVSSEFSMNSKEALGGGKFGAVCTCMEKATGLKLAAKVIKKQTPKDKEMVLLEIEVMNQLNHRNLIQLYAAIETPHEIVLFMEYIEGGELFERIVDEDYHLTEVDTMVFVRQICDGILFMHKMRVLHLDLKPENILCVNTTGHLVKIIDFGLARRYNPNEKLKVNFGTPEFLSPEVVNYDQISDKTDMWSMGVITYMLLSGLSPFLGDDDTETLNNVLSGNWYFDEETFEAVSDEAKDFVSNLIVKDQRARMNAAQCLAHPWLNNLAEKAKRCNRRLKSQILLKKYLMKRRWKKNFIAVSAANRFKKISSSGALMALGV"}, "SIK2": {"biological_target": "SIK2 (Homo sapiens (Human), UniProt Q9H0K1)"}, "[2]": {"biological_target": "RSK4(Kin.Dom.2-C-terminal) (Homo sapiens (Human), UniProt Q9UK32)"}, "DRAK1": {"biological_target": "DRAK1 (Homo sapiens (Human), UniProt Q9UEE5)"}, "ACVR2A": {"biological_target": "ACVR2A (Homo sapiens (Human), UniProt P27037)"}, "EPHA7": {"biological_target": "EPHA7 (Homo sapiens (Human), UniProt Q15375)"}, "PRKCE": {"biological_target": "PRKCE (Homo sapiens (Human), UniProt Q02156)"}, "CDC2L1": {"biological_target": "CDC2L1 (Homo sapiens (Human), UniProt P21127)", "sequence (P21127 whole entry)": "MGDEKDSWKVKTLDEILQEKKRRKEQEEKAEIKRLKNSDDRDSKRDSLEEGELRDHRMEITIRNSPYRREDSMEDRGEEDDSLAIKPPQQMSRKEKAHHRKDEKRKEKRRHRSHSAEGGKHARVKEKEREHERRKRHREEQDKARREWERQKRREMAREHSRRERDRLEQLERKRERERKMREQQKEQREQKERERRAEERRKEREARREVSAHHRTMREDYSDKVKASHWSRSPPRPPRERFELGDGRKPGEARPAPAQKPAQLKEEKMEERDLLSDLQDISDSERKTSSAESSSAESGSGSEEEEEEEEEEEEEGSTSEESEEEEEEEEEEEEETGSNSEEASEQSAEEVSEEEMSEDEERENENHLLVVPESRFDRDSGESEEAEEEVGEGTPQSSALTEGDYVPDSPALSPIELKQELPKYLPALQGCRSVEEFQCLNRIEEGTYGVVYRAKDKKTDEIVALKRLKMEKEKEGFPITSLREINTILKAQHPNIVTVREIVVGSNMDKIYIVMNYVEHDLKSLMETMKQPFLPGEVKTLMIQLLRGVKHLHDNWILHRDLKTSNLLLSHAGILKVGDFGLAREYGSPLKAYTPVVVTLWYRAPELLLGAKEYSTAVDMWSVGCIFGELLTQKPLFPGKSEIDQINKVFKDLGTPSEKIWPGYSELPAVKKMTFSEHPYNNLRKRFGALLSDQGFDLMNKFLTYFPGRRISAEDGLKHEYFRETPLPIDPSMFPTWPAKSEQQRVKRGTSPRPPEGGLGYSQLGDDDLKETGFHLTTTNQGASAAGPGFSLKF"}, "TIE2": {"biological_target": "TIE2 (Homo sapiens (Human), UniProt Q02763)"}}, "note": "Where two headings read alike, the source gives them in different places.", "data": [{"molecule": "CN(C[C@@H](O)Cc1ccccc1)C(=O)c1cncc(C#Cc2cnn(C(F)F)c2)c1", "note": "[Example 2, (S)-5-((1-(difluoromethyl)-1H-pyrazol-4-yl)ethynyl)-N-(2-hydroxy-3-phenylpropyl)-N-methylnicotinamide]", "values": [{"measurement": "remaining activity at 0.1 µM", "setting": "NEK11; NEK11", "result": 100, "unit": "%"}, {"measurement": "remaining activity at 0.1 µM", "setting": "ERK8; ERK8", "result": 100, "unit": "%"}, {"measurement": "remaining activity at 0.1 µM", "setting": "PDPK1; PDPK1", "result": 99, "unit": "%"}, {"measurement": "remaining activity at 0.1 µM", "setting": "SNRK; SNRK", "result": 100, "unit": "%"}, {"measurement": "remaining activity at 0.1 µM", "setting": "LIMK2; LIMK2", "result": 95, "unit": "%"}, {"measurement": "remaining activity at 0.1 µM", "setting": "NLK; NLK", "result": 100, "unit": "%"}, {"measurement": "remaining activity at 0.1 µM", "setting": "BMPR2; BMPR2", "result": 100, "unit": "%"}, {"measurement": "remaining activity at 0.1 µM", "setting": "PKAC-beta; PKAC-beta", "result": 92, "unit": "%"}, {"measurement": "remaining activity at 0.1 µM", "setting": "DYRK1B; DYRK1B", "result": 97, "unit": "%"}, {"measurement": "remaining activity at 0.1 µM", "setting": "BRAF(V600E); BRAF(V600E)", "result": 97, "unit": "%"}, {"measurement": "remaining activity at 0.1 µM", "setting": "PKMYT1; PKMYT1", "result": 99, "unit": "%"}, {"measurement": "remaining activity at 0.1 µM", "setting": "CAMK2A; CAMK2A", "result": 97, "unit": "%"}, {"measurement": "remaining activity at 0.1 µM", "setting": "SRPK2; SRPK2", "result": 93, "unit": "%"}, {"measurement": "remaining activity at 0.1 µM", "setting": "CSNK1G2; CSNK1G2", "result": 100, "unit": "%"}, {"measurement": "remaining activity at 0.1 µM", "setting": "KIT(A829P); KIT(A829P)", "result": 100, "unit": "%"}, {"measurement": "remaining activity at 0.1 µM", "setting": "[1]; RSK2(Kin.Dom.1-N-terminal)", "result": 100, "unit": "%"}, {"measurement": "remaining activity at 0.1 µM", "setting": "YANK2; YANK2", "result": 100, "unit": "%"}, {"measurement": "remaining activity at 0.1 µM", "setting": "QSK; QSK", "result": 88, "unit": "%"}, {"measurement": "remaining activity at 0.1 µM", "setting": "SGK3; SGK3", "result": 100, "unit": "%"}, {"measurement": "remaining activity at 0.1 µM", "setting": "MYLK2; MYLK2", "result": 100, "unit": "%"}, {"measurement": "remaining activity at 0.1 µM", "setting": "SIK2; SIK2", "result": 89, "unit": "%"}, {"measurement": "remaining activity at 0.1 µM", "setting": "[2]; RSK4(Kin.Dom.2-C-terminal)", "result": 100, "unit": "%"}, {"measurement": "remaining activity at 0.1 µM", "setting": "DRAK1; DRAK1", "result": 95, "unit": "%"}, {"measurement": "remaining activity at 0.1 µM", "setting": "ACVR2A; ACVR2A", "result": 94, "unit": "%"}, {"measurement": "remaining activity at 0.1 µM", "setting": "EPHA7; EPHA7", "result": 97, "unit": "%"}, {"measurement": "remaining activity at 0.1 µM", "setting": "PRKCE; PRKCE", "result": 72, "unit": "%"}, {"measurement": "remaining activity at 0.1 µM", "setting": "CDC2L1; CDC2L1", "result": 100, "unit": "%"}, {"measurement": "remaining activity at 0.1 µM", "setting": "TIE2; TIE2", "result": 100, "unit": "%"}]}, {"molecule": "CN(C[C@H](Cc1ccccc1)OP(=O)(O)O)C(=O)c1cncc(C#Cc2cnn(C(F)F)c2)c1", "note": "[Example 19, (S)-1-(5-((1-(difluoromethyl)-1H-pyrazol-4-yl)ethynyl)-N-methylnicotinamido)-3-phenylpropan-2-yl dihydrogen phosphate]", "values": [{"measurement": "remaining activity at 0.1 µM", "setting": "NEK11", "result": 95, "unit": "%"}, {"measurement": "remaining activity at 0.1 µM", "setting": "ERK8", "result": 100, "unit": "%"}, {"measurement": "remaining activity at 0.1 µM", "setting": "PDPK1", "result": 100, "unit": "%"}, {"measurement": "remaining activity at 0.1 µM", "setting": "SNRK", "result": 100, "unit": "%"}, {"measurement": "remaining activity at 0.1 µM", "setting": "LIMK2", "result": 93, "unit": "%"}, {"measurement": "remaining activity at 0.1 µM", "setting": "NLK", "result": 100, "unit": "%"}, {"measurement": "remaining activity at 0.1 µM", "setting": "BMPR2", "result": 89, "unit": "%"}, {"measurement": "remaining activity at 0.1 µM", "setting": "PKAC-beta", "result": 100, "unit": "%"}, {"measurement": "remaining activity at 0.1 µM", "setting": "DYRK1B", "result": 79, "unit": "%"}, {"measurement": "remaining activity at 0.1 µM", "setting": "BRAF(V600E)", "result": 97, "unit": "%"}, {"measurement": "remaining activity at 0.1 µM", "setting": "PKMYT1", "result": 100, "unit": "%"}, {"measurement": "remaining activity at 0.1 µM", "setting": "CAMK2A", "result": 100, "unit": "%"}, {"measurement": "remaining activity at 0.1 µM", "setting": "SRPK2", "result": 100, "unit": "%"}, {"measurement": "remaining activity at 0.1 µM", "setting": "CSNK1G2", "result": 95, "unit": "%"}, {"measurement": "remaining activity at 0.1 µM", "setting": "KIT(A829P)", "result": 99, "unit": "%"}, {"measurement": "remaining activity at 0.1 µM", "setting": "[1]", "result": 94, "unit": "%"}, {"measurement": "remaining activity at 0.1 µM", "setting": "YANK2", "result": 95, "unit": "%"}, {"measurement": "remaining activity at 0.1 µM", "setting": "QSK", "result": 85, "unit": "%"}, {"measurement": "remaining activity at 0.1 µM", "setting": "SGK3", "result": 100, "unit": "%"}, {"measurement": "remaining activity at 0.1 µM", "setting": "MYLK2", "result": 96, "unit": "%"}, {"measurement": "remaining activity at 0.1 µM", "setting": "SIK2", "result": 96, "unit": "%"}, {"measurement": "remaining activity at 0.1 µM", "setting": "[2]", "result": 100, "unit": "%"}, {"measurement": "remaining activity at 0.1 µM", "setting": "DRAK1", "result": 100, "unit": "%"}, {"measurement": "remaining activity at 0.1 µM", "setting": "ACVR2A", "result": 100, "unit": "%"}, {"measurement": "remaining activity at 0.1 µM", "setting": "EPHA7", "result": 96, "unit": "%"}, {"measurement": "remaining activity at 0.1 µM", "setting": "PRKCE", "result": 68, "unit": "%"}, {"measurement": "remaining activity at 0.1 µM", "setting": "CDC2L1", "result": 100, "unit": "%"}, {"measurement": "remaining activity at 0.1 µM", "setting": "TIE2", "result": 88, "unit": "%"}]}]}
